Assays:
[1] = Chemical test of capture of OH• radicals (deoxyribose competition); type: biochemical; settings: rate constant of reaction of the competitor with OH•; competition with 2-deoxyribose, UV at 532 nm
Method: A) Chemical test of capture of OH^• radicals:
(Free Rad. Res. Comms., Vol. 14, Nos. 5-6, pp. 363-372)
[…] of buffer (30 mM Na2HPO4.7H2O, 40 mM NaCl, 0.1 mM EDTA), 125 ml of deoxyribose at 2.10^−3 mM and 125 ml of 4-times concentrated solution of radical inhibitor (final concentration from 0 to 0.5 mM) were placed in glass haemolysis tubes cooled on an ice bath. […] of FeSO4 at 10^−3 mM (in water) is added at time 0. After 15 min of incubation the reaction is stopped with 250 ml of trichloroacetic acid at 3%, to which is added 250 ml of solution of thiobarbituric acid at 1.5% (in water). The tubes are kept at 100° C. for 10 min then cooled for detection with UV at 532 nm. The linear relation A0/A=1+ks/dkr [(competitor)/(2-deoxyribose)] was used, where A0 and A denote the absorbances in the absence and in the presence of competitor, ks is the rate constant of reaction of the competitor with OH• and kdr=1.9*10^9 M^−1 sec^−1 is the rate constant of reaction of 2-deoxyribose with OH•. Thus ks is equal to the gradient of the straight line A0/A f((competitor)/(2-deoxyribose)) multiplied by kdr.

[2] = system: release of free radicals induced by glutamate in the striatum; test: In vivo intracerebral perfusion (striatum microdialysis), generation of radicals by injection of glutamate; settings: 1 mM in perfusion medium
Text: C) tests in vivo on intracerebral perfusion and generation of radicals by injection of glutamate.
Experimental preparation: [J. Neurosci. Methods, 72 (1997) 123-135]
The animals used are male rats of the Wistar strain weighing 250 g. Under general anaesthesia, the animals are placed in a stereotaxic apparatus. A cannula guide is introduced by microsurgery into the striatum (coordinates A : +0.02 cm; L: −0.30 cm and H: −0.65 cm relative to the 0 point defined according to Paxinos and Watson). Three to four screws are arranged on the animal's skull and the whole is fixed with dental cement (Durelon). After a recovery period during which the animals become used to the tester, a CMA 12 microdialysis cannula is inserted in the guide in such a way that the cellophane membrane projects 2 mm into the brain tissue. All the perfusions are effected on animals that are awake. A physiological solution (NaCl: 140 mM; KCl: 5 mM; […]: 3.9 mM), to which 250 μM of Na salicylate is added extemporaneously, is injected into the system at a constant flow rate of 1 μl.min^−1. […]
Salicylic acid present in the perfusion fluid reacts with the OH radicals released at the perfusion site, forming a compound, 2,3-dihydroxybenzoic acid (2,3-DBHA), which is specific to this reaction. This reaction product is quantified in each sample by high-performance liquid chromatography followed by Electrochemical Detection. […]

[3] = Concentration in brain and plasma after systemic injection; type: in vivo, rats of the Wistar strain
Method: Experimental preparation: [Amer. J. Physiol., 267 (1994) R164-R170]
Under general anaesthesia, catheters made from tubes of flexible and inert polyethylene PE50 (Clay Adams) are placed in the right carotid artery of male rats of the Wistar strain weighing 250 g, and are slid under the skin to emerge at the nape at a site that is inaccessible to the animal. The injections are carried out 5 days later, to allow the animals optimum post-operative recovery. This arrangement permits easy and very quick systemic injections on the animal while it is conscious.
At the specified time after injection, the animals are killed by decapitation. The brains are removed in less than a minute without further fractionation. The meninges are quickly separated and the brains are rinsed in a large volume of physiological serum before being frozen at −30° C. The blood is collected on EDTA in tubes maintained at 0° C. After centrifugation, the plasma is separated and aliquots are preserved at −30° C.
After thawing, the brains are weighed and homogenized in the cold in 3 volumes of NaOH (0.1N), using an Ultra-Turrax pulverizer. An internal standard, at a suitable concentration, is added to each sample to allow for individual variations in extraction. The pulverizates are directly extracted three times with a total of 6 volumes of ethyl acetate, followed each time by centrifugation at high speed.
Apart from the stage of pulverizing, the plasmas are treated similarly.
The extracts are filtered through a 0.22 μm Millipore membrane and, after evaporation of the solvent under a nitrogen stream, the dry extracts are stored at −30° C.
One of the compounds of the invention (IC 180), diluted in physiological serum, is injected at a concentration equal to 20 mg.kg^−1. […] Its concentration decreases by about 50% in the brain, 1 hour after injection. […] The ratio of the concentrations between the brain and the plasma therefore increases between 30 and 60 minutes after injection.

[4] = 30 min after injection of 20 mg.kg^−1
[5] = 1 hour after injection of 20 mg.kg^−1

With `c1cc2c(s1)CCCC2N1CCOCC1` (centres unmarked) [IC180, morpholine-4-tetrahydro-4,5,6,7-benzothiophene] the “ks (10^−9M^−1 sec^−1) (±SEM)” value [1] was 3.75 ± 0.33 10^−9M^−1 sec^−1, the “release of free radicals induced by glutamate (2,3-dihydroxybenzoic acid)” value ([2]; striatum, awake rats, 1.5 mM Na glutamate, FIG. 9) was “Blocking” and the “toxic side effect of introduction in situ” value ([2]; response restored a week later) was “did not have a toxic side effect”. The “detection in the brain” value [3, 4] was “detected preferentially in the brain”, the “detection in the plasma” value [3, 4] was “clearly identifiable in the plasma” and the “decrease of concentration in the brain” value [3, 5] was “about 50%”. For the same compound, the “detection in the plasma” value [3, 5] was “can only be detected very slightly” and the “ratio of the concentrations between the brain and the plasma” value ([3]; between 30 and 60 minutes after injection, FIG. 10) was “increases”.

— patent publication US6514967B1 (priority 1997, dated 2003)
